Test results published in the supplement of paper PMC11061612.

Key:
Experiment in all cases: combination Emax (second highest fraction inhibited in the dose matrix, 72 h); higher = more inhibition; extreme values may be limits of the assay
[1] = tested on: KARPAS-620 (Plasma Cell Myeloma)
Outline: (§1)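 After 24 hours at 37°C and 5% CO2 in 1536-well plates, cells in DMEM/F12 or RPMI plus 10% FBS received two-drug dose matrices for 72 hours. Viability came from CellTiter-Glo 2.0 luminescence and was scaled as inhibition, anchored at 0 by vehicle wells and at 1 by blank wells. Combination Emax is taken as the second-highest inhibition in the matrix, and Bliss excess as the observed combination effect less EA + EB − EA·EB, with EA and EB the single-agent effects.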

[2] = tested on: KATOIII (Gastric Carcinoma)
Outline: as §1

[3] = tested on: TE-5 (Esophageal Squamous Cell Carcinoma)
Outline: as §1

[4] = tested on: NCI-H1299 (Non-Small Cell Lung Carcinoma)
Outline: as §1

[5] = tested on: SW1088 (Low Grade Glioma)
Outline: as §1

[6] = tested on: COR-L95 (Small Cell Lung Carcinoma)
Outline: as §1

NCI-H2595 (Mesothelioma) = tested on: NCI-H2595 (Mesothelioma)
Outline: as §1

[7] = tested on: SW1783 (Low Grade Glioma)
Outline: as §1

DSH1 (Bladder Carcinoma) = tested on: DSH1 (Bladder Carcinoma)
Outline: as §1

[8] = tested on: DB (B-Cell Non-Hodgkin's Lymphoma)
Outline: as §1

SN12C (Kidney Carcinoma) = tested on: SN12C (Kidney Carcinoma)
Outline: as §1

[9] = tested on: HT-29 (Colorectal Carcinoma)
Outline: as §1

SK-N-FI (Neuroblastoma) = tested on: SK-N-FI (Neuroblastoma)
Outline: as §1

[10] = tested on: MFH-ino (Other Solid Carcinomas)
Outline: as §1

[11] = tested on: SW1990 (Pancreatic Carcinoma)
Outline: as §1

[12] = tested on: DOV13 (Ovarian Carcinoma)
Outline: as §1

[13] = tested on: MDA-MB-231 (Breast Carcinoma)
Outline: as §1

ES7 (Ewing's Sarcoma) = tested on: ES7 (Ewing's Sarcoma)
Outline: as §1

[14] = tested on: IHH-4 (Thyroid Gland Carcinoma)
Outline: as §1

[15] = tested on: NALM-6 (B-Lymphoblastic Leukemia)
Outline: as §1

Compound | combination Emax [1] | combination Emax [2] | combination Emax [3] | combination Emax [4] | combination Emax [5] | combination Emax [6] | combination Emax (NCI-H2595 (Mesothelioma)) | combination Emax [7] | combination Emax (DSH1 (Bladder Carcinoma)) | combination Emax [8] | combination Emax (SN12C (Kidney Carcinoma)) | combination Emax [9] | combination Emax (SK-N-FI (Neuroblastoma)) | combination Emax [10] | combination Emax [11] | combination Emax [12] | combination Emax [13] | combination Emax (ES7 (Ewing's Sarcoma)) | combination Emax [14] | combination Emax [15]
O=C(c1cc(Cc2n[nH]c(=O)c3ccccc23)ccc1F)N1CCN(C(=O)C2CC2)CC1 [Olaparib] + CC1(C)CCC(CN2CCN(c3ccc(C(=O)NS(=O)(=O)c4ccc(NCC5CCOCC5)c([N+](=O)[O-])c4)c(Oc4cnc5[nH]ccc5c4)c3)CC2)=C(c2ccc(Cl)cc2)C1 [Venetoclax] (first compound max 10 µM, 7x7, partner max 1 µM) | 0.872 | 0.412 | 0.0752 | 0.0838 | 0.136 | 0.846 | 0.109 | 0.0873 | 0.272 | 0.849 | 0.206 | 0.115 | 0.0529 | 0.118 | 0.179 | 0.158 | 0.239 | 0.95 | 0.169 | 0.965
O=C(c1cc(Cc2n[nH]c(=O)c3ccccc23)ccc1F)N1CCN(C(=O)C2CC2)CC1 [Olaparib] + CN(CC[C@H](CSC1=CC=CC=C1)NC2=C(C=C(C=C2)S(=O)(=O)NC(=O)C3=CC=C(C=C3)N4CCC(CC4)[C@H](C5=CC=CC=C5C6=CC=C(C=C6)Cl)O)S(=O)(=O)C(F)(F)F)CCO [AZD4320] (first compound max 10 µM, 7x7, partner max 1 µM) | 1 | 0.37 | 0.238 | 0.114 | 0.147 | 1 | 0.228 | 0.289 | 0.512 | 0.923 | 0.18 | 0.104 | 0.144 | 0.108 | 0.328 | 0.86 | 0.668 | 0.969 | 0.206 | 0.974
O=C(c1cc(Cc2n[nH]c(=O)c3ccccc23)ccc1F)N1CCN(C(=O)C2CC2)CC1 [Olaparib] + COc1nnc2ccc(N3CCC(c4ccc(OCCN5CCN(C)C(=O)[C@H]5C)cc4)CC3)nn12 [AZD5153] (first compound max 10 µM, 7x7, partner max 1 µM) | 0.666 | 0.4 | 0.347 | 0.637 | 0.392 | 0.455 | 0.273 | 0.319 | 0.647 | 0.74 | 0.255 | 0.658 | 0.489 | 0.346 | 0.195 | 0.455 | 0.626 | 0.944 | 0.535 | 0.911
O=C(c1cc(Cc2n[nH]c(=O)c3ccccc23)ccc1F)N1CCN(C(=O)C2CC2)CC1 [Olaparib] + Cc1c2c(nn1C)CSCc1cc(n(C)n1)CSc1cc(c3ccccc3c1)OCCCc1c(C(=O)O)n(C)c3c-2c(Cl)ccc13 [AZD5991] (first compound max 10 µM, 7x7, partner max 1 µM) | 1 | 0.356 | 0.0405 | 0.0533 | 0.136 | 0.395 | 0.217 | 0.0425 | 0.692 | 0.994 | 0.065 | 0.0739 | 0.211 | 0.0277 | 0.238 | 0.216 | 0.161 | 0.942 | 0.174 | 0.74
N#Cc1cnc(Nc2cc(NC[C@H]3CNCCO3)c(C(F)(F)F)cn2)cn1 [SRA737] + CCc1c2c(nc3ccc(O)cc13)-c1cc3c(c(=O)n1C2)COC(=O)[C@]3(O)CC [SN-38] (first compound max 10 µM, 7x7, partner max 0.3 µM) | 0.658 | 0.543 | 0.851 | 0.559 | 0.736 | 0.572 | 0.389 | 0.857 | 0.95 | 0.988 | 0.627 | 0.903 | 0.606 | 0.704 | 0.519 | 0.994 | 0.908 | 1 | 0.98 | 1
N#Cc1cnc(Nc2cc(NC[C@H]3CNCCO3)c(C(F)(F)F)cn2)cn1 [SRA737] + Nc1ccn([C@@H]2O[C@H](CO)[C@@H](O)C2(F)F)c(=O)n1 [Gemcitabine] (first compound max 10 µM, 7x7, partner max 0.3 µM) | 0.801 | 0.557 | 0.633 | 0.765 | 0.626 | 0.391 | 0.397 | 0.729 | 0.972 | 0.931 | 0.664 | 0.853 | 0.752 | 0.738 | 0.505 | 0.97 | 0.838 | 0.989 | 1 | 0.954
N#Cc1cnc(Nc2cc(NC[C@H]3CNCCO3)c(C(F)(F)F)cn2)cn1 [SRA737] + O=c1[nH]cc(F)c(=O)[nH]1 [5-Fluorouracil] (first compound max 10 µM, 7x7, partner max 20 µM) | 0.414 | 0.565 | 0.24 | 0.448 | 0.691 | 0.232 | 0.132 | 0.318 | 0.414 | 0.236 | 0.0841 | 0.696 | 0.601 | 0.314 | 0.515 | 0.347 | 0.271 | 0.82 | 0.934 | 0.896
Cc1nc(-c2cn3c(n2)-c2ccc(-c4cnn(C(C)(C)C(N)=O)c4)cc2OCC3)n(C(C)C)n1 [Taselisib] + O=C(Nc1ccc2[nH]nc(-c3ccncc3)c2c1)[C@@H]1CCN(CC(=O)N2CCN(c3ccc(-c4ncccn4)cc3)CC2)C1 [SCH772984] (first compound max 10 µM, 7x7, partner max 5 µM) | 0.969 | 0.583 | 0.822 | 0.629 | 0.72 | 0.238 | 0.393 | 0.643 | 0.977 | 0.449 | 0.387 | 0.965 | 0.877 | 0.659 | 0.655 | 0.599 | 0.834 | 0.726 | 0.73 | 0.752
CC1(C)CCC(CN2CCN(c3ccc(C(=O)NS(=O)(=O)c4ccc(NCC5CCOCC5)c([N+](=O)[O-])c4)c(Oc4cnc5[nH]ccc5c4)c3)CC2)=C(c2ccc(Cl)cc2)C1 [Venetoclax] + CS(=O)(=O)CCNCc1ccc(-c2ccc3ncnc(Nc4ccc(OCc5cccc(F)c5)c(Cl)c4)c3c2)o1 [Lapatinib] (first compound max 1 µM, 7x7, partner max 10 µM) | 0.981 | 0.291 | 0.218 | 0.125 | 0.254 | 0.677 | 0.197 | 0.207 | 0.747 | 0.949 | 0.222 | 0.731 | 0.223 | 0.0533 | 0.174 | 0.166 | 0.17 | 0.613 | 0.175 | 0.911
